Values after ≈ are worked out from the molar mass of the structure shown. Active and inactive are the calls of the source. The calls are words filed in the database; no cut-off is given here.
What was measured:
Pseudomonas aeruginosa [1] = experiment: Antibacterial activity against Pseudomonas aeruginosa ATCC 15442 assessed as bacterial growth inhibition measured after 18 hrs by CLSI protocol based two-fold serial microdilution method; assay type: functional, organism-based
Pseudomonas aeruginosa [2] = experiment: Antibacterial activity against Pseudomonas aeruginosa ATCC 27853 assessed as bacterial growth inhibition measured after 18 hrs by CLSI protocol based two-fold serial microdilution method; assay type: functional, organism-based
Escherichia coli [3] = experiment: Antibacterial activity against Escherichia coli NCTC 8196 assessed as bacterial growth inhibition measured after 18 hrs by CLSI protocol based two-fold serial microdilution method; assay type: functional, organism-based
Escherichia coli [4] = experiment: Antibacterial activity against Escherichia coli ATCC 25922 assessed as bacterial growth inhibition measured after 18 hrs by CLSI protocol based two-fold serial microdilution method; assay type: functional, organism-based
[5] = system: Staphylococcus epidermidis; experiment: Antibacterial activity against methicillin-resistant Staphylococcus epidermidis isolate 574 assessed as bacterial growth inhibition measured after 18 hrs by CLSI protocol based two-fold serial microdilution method; assay type: functional; conditions: isolate 574, 18 h
[6] = system: Staphylococcus epidermidis; experiment: Antibacterial activity against methicillin-resistant Staphylococcus epidermidis isolate 602 assessed as bacterial growth inhibition measured after 18 hrs by CLSI protocol based two-fold serial microdilution method; assay type: functional; conditions: isolate 602, 18 h
[7] = system: Staphylococcus epidermidis; experiment: Antibacterial activity against methicillin-resistant Staphylococcus epidermidis isolate 603 assessed as bacterial growth inhibition measured after 18 hrs by CLSI protocol based two-fold serial microdilution method; assay type: functional; conditions: isolate 603, 18 h
[8] = system: Staphylococcus epidermidis; experiment: Antibacterial activity against methicillin-resistant Staphylococcus epidermidis isolate 609 assessed as bacterial growth inhibition measured after 18 hrs by CLSI protocol based two-fold serial microdilution method; assay type: functional; conditions: isolate 609, 18 h
[9] = system: Staphylococcus epidermidis; experiment: Antibacterial activity against methicillin-resistant Staphylococcus epidermidis isolate 610 assessed as bacterial growth inhibition measured after 18 hrs by CLSI protocol based two-fold serial microdilution method; assay type: functional; conditions: isolate 610, 18 h
[10] = system: Staphylococcus epidermidis; experiment: Antibacterial activity against methicillin-resistant Staphylococcus epidermidis isolate 654 assessed as bacterial growth inhibition measured after 18 hrs by CLSI protocol based two-fold serial microdilution method; assay type: functional; conditions: isolate 654, 18 h
[11] = system: Staphylococcus epidermidis; experiment: Antibacterial activity against methicillin-resistant Staphylococcus epidermidis isolate 660 assessed as bacterial growth inhibition measured after 18 hrs by CLSI protocol based two-fold serial microdilution method; assay type: functional; conditions: isolate 660, 18 h
Staphylococcus aureus [12] = experiment: Antibacterial activity against methicillin-resistant Staphylococcus aureus isolate 583 assessed as bacterial growth inhibition measured after 18 hrs by CLSI protocol based two-fold serial microdilution method; assay type: functional; conditions: isolate 583, 18 h
Staphylococcus aureus [13] = experiment: Antibacterial activity against methicillin-resistant Staphylococcus aureus isolate 584 assessed as bacterial growth inhibition measured after 18 hrs by CLSI protocol based two-fold serial microdilution method; assay type: functional; conditions: isolate 584, 18 h
Staphylococcus aureus [14] = experiment: Antibacterial activity against methicillin-resistant Staphylococcus aureus isolate 612 assessed as bacterial growth inhibition measured after 18 hrs by CLSI protocol based two-fold serial microdilution method; assay type: functional; conditions: isolate 612, 18 h
Staphylococcus aureus [15] = experiment: Antibacterial activity against methicillin-resistant Staphylococcus aureus isolate 620 assessed as bacterial growth inhibition measured after 18 hrs by CLSI protocol based two-fold serial microdilution method; assay type: functional; conditions: isolate 620, 18 h
Staphylococcus aureus [16] = experiment: Antibacterial activity against methicillin-resistant Staphylococcus aureus isolate 621 assessed as bacterial growth inhibition measured after 18 hrs by CLSI protocol based two-fold serial microdilution method; assay type: functional; conditions: isolate 621, 18 h
Staphylococcus aureus [17] = experiment: Antibacterial activity against methicillin-resistant Staphylococcus aureus isolate 750 assessed as bacterial growth inhibition measured after 18 hrs by CLSI protocol based two-fold serial microdilution method; assay type: functional; conditions: isolate 750, 18 h
Staphylococcus aureus [18] = experiment: Antibacterial activity against methicillin-resistant Staphylococcus aureus isolate 770 assessed as bacterial growth inhibition measured after 18 hrs by CLSI protocol based two-fold serial microdilution method; assay type: functional; conditions: isolate 770, 18 h
[19] = system: Staphylococcus epidermidis; experiment: Inhibition of biofilm formation in Staphylococcus epidermidis ATCC 35984 at 1 to 8 ug/ml measured after 24 hrs by crystal violet staining based assay; assay type: functional, organism-based
[20] = system: Staphylococcus epidermidis; experiment: Inhibition of biofilm formation in Staphylococcus epidermidis ATCC 12228 at 1 to 8 ug/ml measured after 24 hrs by crystal violet staining based assay; assay type: functional, organism-based
[21] = Genotoxicity in rec negative Bacillus subtilis M45 assessed as diameter of inhibition zone at 256 ug measured after 24 hrs by rec-assay; assay type: toxicity; conditions: in vivo
[22] = Genotoxicity in rec-positive Bacillus subtilis H17 assessed as diameter of inhibition zone at 256 ug measured after 24 hrs by rec-assay; assay type: toxicity; conditions: in vivo

| Structure (SMILES) | Activity (Pseudomonas aeruginosa [1]) | Activity (Pseudomonas aeruginosa [2]) | Activity (Escherichia coli [3]) | Activity (Escherichia coli [4]) | inhibition [19] | inhibition [20] | diameter of the inhibition zone (DIZ) [21] | diameter of the inhibition zone (DIZ) [22] | further results |
| --- | --- | --- | --- | --- | --- | --- | --- | --- | --- |
| CC[C@@H](C(=O)[C@@H](C)[C@@H](O)[C@H](C)[C@@H]1O[C@@H]([C@@H](CC)C(=O)NCCc2ccc(F)cc2)CC[C@@H]1C)[C@H]1O[C@]2(C=C[C@@H](O)[C@]3(CC[C@@](C)([C@H]4CC[C@](O)(CC)[C@H](C)O4)O3)O2)[C@H](C)C[C@@H]1C | inactive | inactive | inactive | inactive | Active | Active | 27 mm | 20 mm | MIC [5]: 18.4 µM (≈ 16 µg/mL); MIC [6]: 36.7 µM (≈ 32 µg/mL); MIC [7]: 18.4 µM (≈ 16 µg/mL); MIC [8]: 18.4 µM (≈ 16 µg/mL); MIC [9]: 36.7 µM (≈ 32 µg/mL); MIC [10]: 36.7 µM (≈ 32 µg/mL); MIC [11]: 36.7 µM (≈ 32 µg/mL); MIC (Staphylococcus aureus [12]): 18.4 µM (≈ 16 µg/mL); MIC (Staphylococcus aureus [13]): 18.4 µM (≈ 16 µg/mL); MIC (Staphylococcus aureus [14]): 36.7 µM (≈ 32 µg/mL); MIC (Staphylococcus aureus [15]): 18.4 µM (≈ 16 µg/mL); MIC (Staphylococcus aureus [16]): 18.4 µM (≈ 16 µg/mL); MIC (Staphylococcus aureus [17]): 18.4 µM (≈ 16 µg/mL); MIC (Staphylococcus aureus [18]): 36.7 µM (≈ 32 µg/mL) |
| O=[N+]([O-])c1cc[n+]([O-])c2ccccc12 [4-NITROQUINOLINE-1-OXIDE] |  |  |  |  |  |  | 34 mm | 22 mm |  |
| C#CCOC(=O)[C@H](CC)[C@H]1CC[C@H](C)[C@H]([C@@H](C)[C@H](O)[C@H](C)C(=O)[C@H](CC)[C@H]2O[C@]3(C=C[C@@H](O)[C@]4(CC[C@@](C)([C@H]5CC[C@](O)(CC)[C@H](C)O5)O4)O3)[C@H](C)C[C@@H]2C)O1 | inactive | inactive | inactive | inactive |  |  |  |  |  |
| C#CCNC(=O)[C@H](CC)[C@H]1CC[C@H](C)[C@H]([C@@H](C)[C@H](O)[C@H](C)C(=O)[C@H](CC)[C@H]2O[C@]3(C=CC(=O)[C@]4(CC[C@@](C)([C@H]5CC[C@](O)(CC)[C@H](C)O5)O4)O3)[C@H](C)C[C@@H]2C)O1 | inactive | inactive | inactive | inactive |  |  |  |  |  |
| C#CCN[C@@H]1C=C[C@]2(O[C@H]([C@@H](CC)C(=O)[C@@H](C)[C@@H](O)[C@H](C)[C@@H]3O[C@@H]([C@@H](CC)C(=O)O)CC[C@@H]3C)[C@@H](C)C[C@H]2C)O[C@@]12CC[C@@](C)([C@H]1CC[C@](O)(CC)[C@H](C)O1)O2 | inactive | inactive | inactive | inactive | Active | Active | 34 mm | 30 mm | MIC [5]: 1.27 µM (≈ 1 µg/mL); MIC [6]: 1.27 µM (≈ 1 µg/mL); MIC [7]: 1.27 µM (≈ 1 µg/mL); MIC [8]: 1.27 µM (≈ 1 µg/mL); MIC [9]: 2.54 µM (≈ 2 µg/mL); MIC [10]: 81.2 µM (≈ 64 µg/mL); MIC [11]: 40.6 µM (≈ 32 µg/mL); MIC (Staphylococcus aureus [12]): 81.2 µM (≈ 64 µg/mL); MIC (Staphylococcus aureus [13]): 81.2 µM (≈ 64 µg/mL); MIC (Staphylococcus aureus [14]): 1.27 µM (≈ 1 µg/mL); MIC (Staphylococcus aureus [15]): 2.54 µM (≈ 2 µg/mL); MIC (Staphylococcus aureus [16]): 1.27 µM (≈ 1 µg/mL); MIC (Staphylococcus aureus [17]): 1.27 µM (≈ 1 µg/mL); MIC (Staphylococcus aureus [18]): 2.54 µM (≈ 2 µg/mL) |
| CC[C@@H](C(=O)[C@@H](C)[C@@H](O)[C@H](C)[C@@H]1O[C@@H]([C@@H](CC)C(=O)NCC(F)(F)F)CC[C@@H]1C)[C@H]1O[C@]2(C=CC(=O)[C@]3(CC[C@@](C)([C@H]4CC[C@](O)(CC)[C@H](C)O4)O3)O2)[C@H](C)C[C@@H]1C | inactive | inactive | inactive | inactive |  |  |  |  |  |
| O=C(O)c1cn(C2CC2)c2cc(N3CCNCC3)c(F)cc2c1=O |  |  |  |  | Active | Active |  |  |  |
